In one test the test system is Buchnera. Kind of test: BCR-4 PNA leaf perfusion, Buchnera/aphid copies by qPCR. It counts as in vivo. The following applies: dead aphids collected 5 and 6 days post-treatment, water approximately 20. The method, then:
After 5 and 6 days of treatment, DNA was extracted from dead aphids from each treatment group. Briefly, the aphid body surface was sterilized by dipping the aphid into a 6% bleach solution for approximately 5 seconds. Aphids were then rinsed in sterile water and DNA was extracted from each individual aphid using a DNA extraction kit (Qiagen, DNeasy kit) according to manufacturer's instructions. DNA concentration was measured using a nanodrop nucleic acid quantification, and Buchnera and aphid DNA copy numbers were measured by qPCR. The primers used for Buchnera were Buch_groES_18F ([…]; SEQ ID NO: 101) and Buch_groES_98R ([…]; SEQ ID NO: 102) (Chong and Moran, 2016 PNAS). The primers used for aphid were ApEF1a 107F ([…]; SEQ ID NO: 103) and ApEF1a 246R ([…]; SEQ ID NO: 104) (Chong and Moran, 2016 PNAS). qPCR was performed using a qPCR amplification ramp of 1.6 degrees C./s and the following conditions: 1) 95° C. for 10 minutes, 2) 95° C. for 15 seconds, 3) 55° C. for 30 seconds, 4) repeat steps 2-3 40×, 5) 95° C. for 15 seconds, 6) 55° C. for 1 minute, 7) ramp change to 0.15 degrees C./s, 8) 95° C. for 1 second. qPCR data was analyzed using analytic (Thermo Fisher Scientific, QuantStudio Design and Analysis) software. […]
(In general: Real-time PCR tracks product formation cycle by cycle.)

In test [1] the test system is Aphids (LSR-1 strain, Acyrthosiphon pisum). Kind of test: BCR-4 PNA leaf perfusion, aphid development and survival. The test is classed as in vivo. The following applies: leaf perfusion with 1 uM solution. The method, then:
Aphids (LSR-1 strain, Acyrthosiphon pisum) were grown on fava bean plants (Vroma Vicia faba from Johnny's Selected Seeds) in a climate-controlled incubator (16 h light/8 h dark photoperiod; 60±5% RH; 25±2° C.). Prior to being used for aphid rearing, fava bean plants were grown in potting soil at 24° C. with 16 h of light and 8 h of darkness. To limit maternal effects or health differences between plants, 5-10 adults from different plants were distributed among 10 two-week-old plants and allowed to multiply to high density for 5-7 days. For experiments, first and second instar aphids were collected from healthy plants and divided into two different treatment groups: 1) those allowed to feed on leaves perfused with water, and, 2) those allowed to feed on leaves perfused with a BCR-4 PNA solution in water.
For each leaf perfusion, approximately 1 ml of water (negative control) or a 1 uM BCR-4 PNA solution was injected into a fava bean leaf. […] Aphids were monitored daily for survival and dead aphids were removed when they were discovered. In addition, the developmental stage (1st, 2nd, 3rd, 4th, and 5th instar) was determined daily throughout the experiment.
LSR-1 first and second instar aphids were divided into two groups as defined in Leaf Perfusion Experimental Design. Aphids were monitored daily and the number of aphids at each developmental stage was determined. […]

The test system of test [2] is BCR-4. Kind of test: BCR-4 PNA leaf perfusion, BCR-4 expression by RT-qPCR. It counts as in vivo, Acyrthosiphon pisum. The following applies: living aphids after 7 days of treatment, relative to actin. The method, then:
After 7 days of treatment, RNA was extracted from the remaining aphids in each treatment group. Briefly, the aphid body surface was sterilized by dipping the aphid into a 6% bleach solution for approximately 5 seconds. Aphids were then rinsed in sterile water and total RNA was extracted from each individual aphid using the RNA extraction kit (Qiagen miRNeasy kit) according to manufacturer's instructions. RNA concentrations were measured using a nanodrop nucleic acid quantification. BCR-4 relative expression was measured by RT-qPCR. The primers used were ApBCR-4F ([…]; SEQ ID NO: 107) and ApBCR-4R ([…]; SEQ ID NO: 108). The internal reference gene primers were for Actin (housekeeping gene). The forward sequence was […]; SEQ ID NO: 109 and the reverse sequence was […]; SEQ ID NO: 110. […] RT-qPCR data was analyzed using analytic (Thermo Fisher Scientific, QuantStudio Design and Analysis) software.
At 7 post-treatment, RNA was extracted from live aphids and RT-pPCR was done as described above (see Microinjection Delivery Experimental Design) to quantify expression of BCR-4. […]

For another test, the system named is Aphids LSR-1, A. pisum. The test is described as follows: BCR-4 PNA microinjection, aphid survival and fecundity. The test is classed as in vivo. The method, then: (§1) Microinjection was performed using NanoJet III Auto-Nanoliter Injector with an in-house pulled borosilicate needle (Drummond Scientific; Cat #3-000-203-G/XL). Aphids were transferred using a paint brush to a tubing system connected to vacuum which held them in place during the injection. The injection site was at the ventral thorax of the aphid. The injection solutions were water (negative control) or 321 ng/μl of BCR-4 PNA in water. The injection volume was 20 nl for adult (4th and 5th instar) aphids at a rate of 2 nl/sec. Each treatment group had approximately the same number of individuals injected from each of the collection plants. After injection, aphids were released into a petri dish onto fava bean leaves that had stems in an Eppendorf tube filled with 1 ml water. Survival and fecundity were monitored over the course of the experiment.
(§2) Aphids LSR-1 (which harbor only Buchnera), A. pisum were grown on fava bean plants (Vroma Vicia faba from Johnny's Selected Seeds) in a climate-controlled incubator (16 h light/8 h dark photoperiod; 60±5% RH; 25±2° C.). […]
The number of offspring produced from aphids in each treatment group was also assessed during the experiment and fecundity was represented as the number of offspring produced per adult at each time point assessed. […]

The test system of test [3] is BCR-4. Kind of test: BCR-4 PNA microinjection, BCR-4 expression by RT-qPCR (Example 18). It counts as in vivo, A. pisum. The following applies: microinjection 20 nl of 321 ng/μl; 4th and 5th instar; after 7 days; relative to Actin. The method, then:
as §1, §2
After 7 days of treatment, RNA was extracted from the remaining aphids in each treatment group. […] RNA concentrations were measured using a nanodrop nucleic acid quantification. BCR-4 relative expression was measured by RT-qPCR. […] RT-qPCR data was analyzed using analytic (Thermo Fisher Scientific, QuantStudio Design and Analysis) software. […]

As for “YGRKKRRQRRR-CGTACAATAATCTCATGG [BCR-4 PNA]”, the “mean ratio Buchnera/aphid copies” value with Buchnera is “approximately 57 Buchnera/aphid copies”. In test [1] (day 7, water 53%), this substance gave an aphids alive of 30%. The “aphids in the 3rd instar stage” value in test [1] (first and second instar LSR-1, day 2 post-treatment, water approximately 19%) amounted to 8%. The “median transcript levels of BCR-4, fold lower than water” value in the test with BCR-4 [2] is “approximately 3 fold”. The “survival versus water-injected aphids” value in the test with Aphids LSR-1, A. pisum (microinjection 20 nl of 321 ng/μl, 4th and 5th instar) is given as “slight decrease in survival”. For the same substance, in the test on Aphids LSR-1, A. pisum (microinjection, at 3 and 7 days post-treatment, water 5 offspring/adult), the “fecundity, average offspring produced per adult” value came out at 4 offspring/adult. Also, the “BCR-4 expression, fold higher in water-injected aphids than in treated aphids” value in the test with BCR-4 [3] is “approximately 2 fold”.

Values taken from patent publication US11974574B2, “Compositions and related methods for modulating endosymbionts” (Flagship Pioneering Innovations V, Inc., priority 2017, dated 2024).
